Experimental findings from patent US9708314B2, “Heterocyclic amide compound” (NISSAN CHEMICAL INDUSTRIES, LTD., priority 2013, dated 2017) are described below.

Assay type in all cases: in vivo
In assay [1] the test system is Cyperus difformis. As to the kind of experiment: Test Example 3: herbicidal effect by application to foliage (Wagner pot, water depth 0.1-0.5 cm). The settings on record: Nineteenth Table; application to foliage; application herbicide amount 320 g/ha. The procedure, abridged: (§1)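 Grading uses six bands of herbicidal ratio, from 0 (≤5%, almost no effect) to 5 (≥90%, almost completely withered). Treatment was a stem-and-leaf spray of diluted emulsion at a fixed g/ha on 14-day-old plants; evaluation after three weeks.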

Assay [2] relates to Echinochloa crus-galli var. crus-galli. The description is as above. Conditions: Nineteenth Table; application to foliage; application herbicide amount 320 g/ha. A digest of the protocol: as §1
The subject of assay [3] is Leptochloa chinensis. Described as above. Conditions: Nineteenth Table; application to foliage; application herbicide amount 320 g/ha. A digest of the protocol:
as §1

Assay [4] relates to Abutilon theophrasti. As to the kind of experiment: Test Example 4: herbicidal effect by application to foliage (diluvial soil, plastic box). The settings on record: for M: herbicidal effect on Abutilon theophrasti: application to foliage, application herbicide amount 320 g/ha; for M (Abutilon theophrasti) herbicidal effect grade: foliage application. A digest of the protocol: (§2)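 Greenhouse plants (25° C. to 30° C., 14 d, diluvial soil) receive a foliar spray of water-diluted emulsifiable formulation at defined g/ha. Grading after 3 weeks uses a six-step herbicidal-ratio scale, with 4 covering 70% to <90% and 1 covering 5% to <20%.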

For assay [5], the system named is Alopecurus myosuroides. Described as above. Conditions: for J: herbicidal effect on Alopecurus myosuroides: application to foliage, application herbicide amount 320 g/ha; for J (Alopecurus myosuroides) herbicidal effect grade: foliage application. The procedure, abridged:
as §2

The test system of assay [6] is Amaranthus retroflexus. The assay is described as above. Conditions: for N: herbicidal effect on Amaranthus retroflexus: application to foliage, application herbicide amount 320 g/ha; for N (Amaranthus retroflexus) herbicidal effect grade: foliage application. The procedure, abridged:
as §2

Assay [7] deals with Apera spica-venti. The assay is described as above. The settings on record: for L: herbicidal effect on Apera spica-venti.: application to foliage, application herbicide amount 320 g/ha; for L (Apera spica-venti.) herbicidal effect grade: foliage application. The procedure, abridged: as §2
The test system of assay [8] is Chenopodium album. Described as above. The settings on record: for O: herbicidal effect on Chenopodium album: application to foliage, application herbicide amount 320 g/ha; for O (Chenopodium album) herbicidal effect grade: foliage application. A digest of the protocol: as §2
For assay [9], the system named is Digitaria ciliaris. Described as above. The settings on record: for F: herbicidal effect on Digitaria ciliaris: application to foliage, application herbicide amount 320 g/ha; for F (Digitaria ciliaris) herbicidal effect grade: foliage application. A digest of the protocol: as §2
The subject of assay [10] is Setaria viridis. The assay is described as above. The settings on record: for G: herbicidal effect on Setaria viridis: application to foliage, application herbicide amount 320 g/ha; for G (Setaria viridis) herbicidal effect grade: foliage application. A digest of the protocol: as §2
Assay [11] has as its system Stellaria media. The assay is described as above. Conditions: for P: herbicidal effect on Stellaria media: application to foliage, application herbicide amount 320 g/ha; for P (Stellaria media) herbicidal effect grade: foliage application. The procedure, abridged: as §2
Assay [12] deals with Veronica persica. The assay is described as above. Conditions: for R: herbicidal effect on Veronica persica: application to foliage, application herbicide amount 320 g/ha; for R (Veronica persica) herbicidal effect grade: foliage application. The procedure, abridged: as §2
Where [13] appears, read: Application herbicide amount 320 g/ha.

Structures are written as SMILES.

With `Cn1nnnc1NC(=O)c1ccc(C(F)(F)F)n2c(C(C)(C)C)nnc12` [2-027], the “E (herbicidal effect grade)” value in assay [1] is 5 (Herbicidal ratio of 90% or more (almost completely withered)). For the same molecule, in assay [2], the “H (herbicidal effect grade)” value is 5 (Herbicidal ratio of 90% or more (almost completely withered)). For the same molecule, the “D (herbicidal effect grade)” value in assay [3] is listed as 5 (Herbicidal ratio of 90% or more (almost completely withered)). For the same molecule, in assay [4], the “M: herbicidal effect on Abutilon theophrasti” value (“M: herbicidal effect” for short) is on record as 5 (Herbicidal ratio of 90% or more (almost completely withered)). Besides, the “J: herbicidal effect on Alopecurus myosuroides” value (“J: herbicidal effect” for short) in assay [5] is 4 (Herbicidal ratio of 70% or more and less than 90%). Also, in assay [6], the “N: herbicidal effect on Amaranthus retroflexus” value (“N: herbicidal effect” for short) was 5 (Herbicidal ratio of 90% or more (almost completely withered)). Also, the “L: herbicidal effect on Apera spica-venti.” value (“L: herbicidal effect” for short) in assay [7] was 4 (Herbicidal ratio of 70% or more and less than 90%). Further, in assay [8], the “O: herbicidal effect on Chenopodium album” value (“O: herbicidal effect” for short) was 5 (Herbicidal ratio of 90% or more (almost completely withered)). Moreover, the “F: herbicidal effect on Digitaria ciliaris” value (shortened to “F: herbicidal effect”) in assay [9] is recorded as 5 (Herbicidal ratio of 90% or more (almost completely withered)). Besides, the “G: herbicidal effect on Setaria viridis” value in assay [10] is recorded as 5 (Herbicidal ratio of 90% or more (almost completely withered)). For the same molecule, in assay [11], the “P: herbicidal effect on Stellaria media” value is recorded as 5 (Herbicidal ratio of 90% or more (almost completely withered)). For the same molecule, the “R: herbicidal effect on Veronica persica” value in assay [12] was 5 (Herbicidal ratio of 90% or more (almost completely withered)).
With `Cc1nnc(NC(=O)c2ccc(C(F)(F)F)n3c(N4CC[S+]([O-])CC4)nnc23)o1` [1-119], the “E (herbicidal effect grade)” value in assay [1] was 2 (Herbicidal ratio of 20% or more and less than 40%). Moreover, the “H (herbicidal effect grade)” value in [2] was 5 (Herbicidal ratio of 90% or more (almost completely withered)). In addition, the “D (herbicidal effect grade)” value in assay [3] is recorded as 5 (Herbicidal ratio of 90% or more (almost completely withered)). For the same molecule, the “M (Abutilon theophrasti) herbicidal effect grade” value in [4] (setting [13]) is on record as 5 (Herbicidal ratio of 90% or more (almost completely withered)). For the same molecule, the “J (Alopecurus myosuroides) herbicidal effect grade” value in assay [5] (setting [13]) is 3 (Herbicidal ratio of 40% or more and less than 70%). Moreover, the “N (Amaranthus retroflexus) herbicidal effect grade” value in assay [6] (setting [13]) is given as 5 (Herbicidal ratio of 90% or more (almost completely withered)). Also, the “L (Apera spica-venti.) herbicidal effect grade” value in [7] (setting [13]) was 3 (Herbicidal ratio of 40% or more and less than 70%). For the same molecule, the “O (Chenopodium album) herbicidal effect grade” value in assay [8] (setting [13]) is recorded as 5 (Herbicidal ratio of 90% or more (almost completely withered)). Moreover, the “F (Digitaria ciliaris) herbicidal effect grade” value in [9] (setting [13]) was 5 (Herbicidal ratio of 90% or more (almost completely withered)). The “G (Setaria viridis) herbicidal effect grade” value in [10] (setting [13]) is 4 (Herbicidal ratio of 70% or more and less than 90%). For the same molecule, the “P (Stellaria media) herbicidal effect grade” value in assay [11] (setting [13]) is 4 (Herbicidal ratio of 70% or more and less than 90%). The “R (Veronica persica) herbicidal effect grade” value in assay [12] (setting [13]) is reported as 5 (Herbicidal ratio of 90% or more (almost completely withered)).
With `Cn1nnnc1NC(=O)c1ccc(C(F)(F)F)n2c(C3CC3)nnc12` [2-005], the “E (herbicidal effect grade)” value in [1] was 4 (Herbicidal ratio of 70% or more and less than 90%). Moreover, the “H (herbicidal effect grade)” value in assay [2] is 5 (Herbicidal ratio of 90% or more (almost completely withered)). The “D (herbicidal effect grade)” value in [3] was 5 (Herbicidal ratio of 90% or more (almost completely withered)). Also, the “M: herbicidal effect” value in [4] is 5 (Herbicidal ratio of 90% or more (almost completely withered)). In addition, the “J: herbicidal effect” value in assay [5] was 3 (Herbicidal ratio of 40% or more and less than 70%). In assay [6], the “N: herbicidal effect” value is 5 (Herbicidal ratio of 90% or more (almost completely withered)). For the same molecule, the “L: herbicidal effect” value in assay [7] was 4 (Herbicidal ratio of 70% or more and less than 90%). Further, the “O: herbicidal effect” value in assay [8] is recorded as 5 (Herbicidal ratio of 90% or more (almost completely withered)). For the same molecule, the “F: herbicidal effect” value in assay [9] was 5 (Herbicidal ratio of 90% or more (almost completely withered)). Besides, the “G: herbicidal effect on Setaria viridis” value in assay [10] is 4 (Herbicidal ratio of 70% or more and less than 90%). Further, the “P: herbicidal effect on Stellaria media” value in assay [11] is on record as 5 (Herbicidal ratio of 90% or more (almost completely withered)). Further, the “R: herbicidal effect on Veronica persica” value in assay [12] is recorded as 5 (Herbicidal ratio of 90% or more (almost completely withered)).
`CC(C)Sc1nnc2c(C(=O)Nc3nnnn3C)ccc(C(F)(F)F)n12` [2-025]: the “E (herbicidal effect grade)” value in assay [1] was 5 (Herbicidal ratio of 90% or more (almost completely withered)). Besides, the “H (herbicidal effect grade)” value in assay [2] is given as 5 (Herbicidal ratio of 90% or more (almost completely withered)). In [3], the “D (herbicidal effect grade)” value is 5 (Herbicidal ratio of 90% or more (almost completely withered)). Besides, the “M: herbicidal effect” value in assay [4] is 5 (Herbicidal ratio of 90% or more (almost completely withered)). In assay [5], the “J: herbicidal effect” value is 3 (Herbicidal ratio of 40% or more and less than 70%). Also, the “N: herbicidal effect” value in [6] was 5 (Herbicidal ratio of 90% or more (almost completely withered)). Besides, the “L: herbicidal effect” value in [7] was 4 (Herbicidal ratio of 70% or more and less than 90%). Moreover, the “O: herbicidal effect” value in assay [8] is on record as 5 (Herbicidal ratio of 90% or more (almost completely withered)). Further, the “F: herbicidal effect” value in assay [9] is given as 5 (Herbicidal ratio of 90% or more (almost completely withered)). In assay [10], the “G: herbicidal effect on Setaria viridis” value was 5 (Herbicidal ratio of 90% or more (almost completely withered)). Moreover, in [11], the “P: herbicidal effect on Stellaria media” value is given as 5 (Herbicidal ratio of 90% or more (almost completely withered)). Moreover, the “R: herbicidal effect on Veronica persica” value in assay [12] was 5 (Herbicidal ratio of 90% or more (almost completely withered)).
`Cn1nnnc1NC(=O)c1ccc(C(F)(F)F)n2c(C3=NOC(C)(C)C3)nnc12` [2-028]: the “E (herbicidal effect grade)” value in [1] was 5 (Herbicidal ratio of 90% or more (almost completely withered)). In addition, in [2], the “H (herbicidal effect grade)” value is listed as 5 (Herbicidal ratio of 90% or more (almost completely withered)). For the same molecule, in assay [3], the “D (herbicidal effect grade)” value is 5 (Herbicidal ratio of 90% or more (almost completely withered)). In addition, the “M (Abutilon theophrasti) herbicidal effect grade” value in assay [4] (320 g/ha) is on record as 5 (Herbicidal ratio of 90% or more (almost completely withered)). Besides, the “J (Alopecurus myosuroides) herbicidal effect grade” value in assay [5] (320 g/ha) was 4 (Herbicidal ratio of 70% or more and less than 90%). In [6] (320 g/ha), the “N (Amaranthus retroflexus) herbicidal effect grade” value is given as 5 (Herbicidal ratio of 90% or more (almost completely withered)). The “L (Apera spica-venti.) herbicidal effect grade” value in [7] (320 g/ha) is 5 (Herbicidal ratio of 90% or more (almost completely withered)). Moreover, the “O (Chenopodium album) herbicidal effect grade” value in [8] (320 g/ha) is given as 5 (Herbicidal ratio of 90% or more (almost completely withered)). Besides, the “F (Digitaria ciliaris) herbicidal effect grade” value in assay [9] (320 g/ha) is recorded as 5 (Herbicidal ratio of 90% or more (almost completely withered)). The “G (Setaria viridis) herbicidal effect grade” value in [10] (320 g/ha) was 5 (Herbicidal ratio of 90% or more (almost completely withered)). Further, in assay [11] (320 g/ha), the “P (Stellaria media) herbicidal effect grade” value was 5 (Herbicidal ratio of 90% or more (almost completely withered)). For the same molecule, the “R (Veronica persica) herbicidal effect grade” value in assay [12] (320 g/ha) is reported as 5 (Herbicidal ratio of 90% or more (almost completely withered)).
